Test results as given in US20110008302A1, “Compositions and methods for immortalizing cells and screening for anti-cancer agents” (priority 2007, published 2011).

Tests used:
Ndy1 = assay: siRNA knock down in MEFs (Western blot, real time PCR of p16Ink4a, p19Arf, Ezh2, miR-101); type: cell-based, mouse
Procedure: At a time point four days after transfection cells were analyzed by Western blotting and total mRNA was collected and analyzed by real-time PCR with primers specific for p16^Ink4a and p19^Arf and primers specific for the long and short forms of Ndy1. (n=3)*p<0.05
(§1) MEFs overexpressing Ndy1 or Ndy2 and MEFs in which Ndy1 was knocked down with siRNA (1433-[…]-1454, SEQ ID NO: 1), were monitored for senescence by light microscopy and β-galactosidase staining and by cell counting at each passage. Transfection of siRNA was carried out using Lipofectamine 2000 (Invitrogen; Carlsbad, Calif.). Knockdown of Ndy1 was confirmed by Western blotting and real time RTPCR.
For siRNA. MEFs transfected with Ndy1 (1433-[…]-1454; SEQ ID NO: 51) or control siRNA (Dharmacon) were plated at 10^5 cells per 6 cm dish and 3-4 days later were harvested and analyzed (Pfau, R., et al. (2008) Proc Natl Acad Sci USA 105, 1907-12, incorporated herein by reference in its entirety). MEFs were transfected with the help of Lipofectamine 2000 (Invitrogen). To specifically knock down the short form of Ndy1 the following siRNA were used: 5′-[…]-′3 (SEQ ID NO: 52) which specifically targets the exon1 of the v2 isoform of Ndy1 (NM_013910). siRNAs for Ezh2 (a mix of two siRNAs form Applied Biosystems, #AM16708 siID #157427 and #157426) and Bmi-1 (Santa Cruz Biotechnologies, # sc-29815) were used in a final concentration of 80 nM.

MEFs [1] = assay: Senescence of MEFs after Ndy1 siRNA (cell counting, β-galactosidase staining); type: cell-based, mouse
Procedure: as §1
MEFs transfected with Ndy1 (1433-[…]-1454) or control siRNA (Dharmacon; Chicago, Ill.) were plated in triplicate at 10^5 cells per well in 6 well dishes, and three days later they were counted, re-transfected and replated at 10^5 cells per well. At day 6, cells were photographed, counted and stained for the β-galactosidase (Pierce #9860; Rockford, Ill.). β-galactosidase staining of the cells infected with the retroviral constructs and the siRNA-treated cells was performed using X-gal and a β-galactosidase staining kit (Pierce #9860).
To determine whether endogenous Ndy1 is a physiological regulator of senescence, passage 3 wild type MEFs and passage-8 MEFs overexpressing Ndy1 were transfected with Ndy1 or control siRNA. […] The transfected cells were passaged twice, and cell proliferation was monitored by counting the cells at each passage. Cell morphology and β-galactosidase staining were recorded after the second passage (FIG. 10 panel B, FIG. 10 panel C and FIG. 10 panel D). […]

[2] = test system: TCCSUP, WIDR, SKOV3, T24, NCI522; assay: Ndy1 siRNA in cancer cell lines expressing high levels of FGF-2; type: cell-based, human; conditions: five of eight high FGF-2 cell lines, 48 hours after transfection
Procedure: RNAs were transfected with Lipofectamine 2000 (Invitrogen, catalog number 11668-027) in MEFs and DharmaFect 3 (Dharmacon, catalog number T-2003-03) in cancer cell lines, according to the manufacturers' instructions (80 nM final concentration).
These eight high FGF-2 expressing cell lines were then transfected with siRNA for Ndy1 or a control siRNA. Nuclear extracts of these cells, collected 48 hours after the transfection, were probed with antibodies specific for each of Ndy1, Ezh2 and CREB. RNA isolated from these cells was analyzed by real time RT-PCR for abundance of microRNA miR-101. […] The five cell lines were obtained from patients having each of transitional cell carcinoma, lung cancer, colon cancer, ovarian cancer, and bladder cancer.

MEFs [3] = assay: Stimulation of serum-starved MEFs with growth factors or serum (Ezh2, Ndy1, miR-101 levels); type: cell-based, mouse
Procedure: MEFs were transfected with control siRNA and stimulated with serum (10%) for 1, 4, 12 and 18 hours. (upper) Nuclear extracts were probed with antibody specific for Ezh2 and for CREB, levels of which served as loading control. (lower) Ndy1 and Ezh2 mRNA levels were measured with real time RT-PCR; GAPDH mRNA levels were used as internal control. Data are expressed as mean±SD.
Serum starved MEFs were stimulated with each of FGF-2 (20 ng/ml), IGF-1 (20 ng/ml), PDGF (20 ng/ml), serum (10%), VEGF (20 ng/ml), EGF (20 ng/ml) or TNFα (50 ng/ml). Nuclear extracts were probed with antibody specific for Ezh2 and for CREB, levels of which served as loading control.
Data are expressed as mean±SD.
MEFs transfected with control siRNA were stimulated with FGF-2 for 1, 4, 12 or 18 hours. (upper) Nuclear extracts were probed with antibody specific for Ezh2. CREB levels served as loading control. (middle) Ndy1 and Ezh2 mRNA were measured with real time RT-PCR; GAPDH mRNA levels were used as internal control. Data are expressed as mean±SD. (lower) miR-101 levels were measured with real time RT-PCR; U6 small nuclear RNA levels were used as internal control. Data are expressed as mean±SD.
For stimulation with FGF-2 (Cell signalling, catalog number 8910), IGF-1 (R&D Systems, catalog number 791-MG), PDGF (Cell signalling, catalog number 9909), VEGF (R&D systems, catalog number 493-MV), EGF (R&D systems, catalog number 236-EG), TNFα (Cell Signalling, catalog number 2169), cells were serum starved for 16 hours and growth factors were added at a final concentration of 20 ng/ml each, for 24 hours.
To identify a pathway regulating Ezh2 expression via the Ndy1/miR-101 axis, serum-starved MEFs were stimulated with FGF-2, IGF-1, PDGF, EGF, VEGF, TNFα or serum and were examined for expression of Ezh2, Ndy1 and miR-101 before and 24 hours after stimulation. […] This was confirmed with analyses in which FGF-2 was used to stimulate serum-starved MEFs transfected with a control siRNA or siRNA for Ndy1 (FIG. 36).

MEFs [4] = assay: FGF-2-induced proliferation and migration of MEFs (MTT, transwell filter, wound healing); type: cell-based, mouse
Source text: FGF-2 stimulation induces both proliferation and migration in various cell types. To determine the role of Ndy1 in FGF-2-driven proliferation and migration, FGF-2 was used to stimulate serum-starved MEFs which were transfected with control RNA, siRNA for Ndy1, miR-101 or with siRNA for Ndy1+miR-101.
To determine cell number, the 3-[4,5-dimethylthiazol-2-yl]-2,5-[…] bromide (MTT, Invitrogen, catalog number M6494) assay was used as described in Polytarchou, C et al., 2005 J. Biol. Chem. 280: 40428-35. Cells were seeded at 2×10^4 cells/well in 24-well tissue culture plates. Twenty-four hours later, cells were serum-starved in medium without FBS for 16 h. Culture medium was replaced with fresh medium containing FGF-2 or control carrier, and the number of cells was determined. Results were confirmed by direct counting of cells under the microscope, using a standard hemocytometer.
Migration assays were performed using 24-well microchemotaxis chambers (Costar) with uncoated polycarbonate membranes (pore size 8 μm). Briefly, cells were harvested and resuspended at 5×10^4 cells/0.15 ml in DMEM containing 0.25% BSA. The bottom chamber of each transwell unit contained 0.6 ml of DMEM supplemented with 0.25% BSA and FGF-2 (20 ng/ml) or carrier as a control. The plates were incubated for 6 h at 37° C. and the filters were fixed with 4% paraformaldehyde in PBS and stained with 0.1% crystal violet solution. The cells that migrated through the filter were counted using a grid and an Optech microscope at 20× magnification.
To assay wound healing, cells were plated on 6-well plates, incubated in DMEM containing 10% FBS until confluence and were serum starved for 16 hours. Wounds were introduced to the confluent cell monolayer with a plastic pipette tip. Wells were washed three times to remove floating cells, and were cultured in DMEM without FBS, in the presence or absence of FGF-2 (20 ng/ml). Twelve and twenty four hours later, the wound area was photographed using a Nikon Phase Contrast-2 ELWD 0.3 Diaphot TMD inverted microscope with a 10× objective and a Spot charge-coupled-device camera (Diagnostic Instruments).

[5] = test system: Human Umbilical cord Vein Endothelial Cells; assay: In vitro tube formation assay; type: cell-based; conditions: HUVECs, FGF-2 20 ng/ml, 6 h
Procedure: HUVECs were transduced with a myc.Ezh2 expression construct, or with the empty vector (EV) and were subsequently transduced with either shRNA for Ndy1 or with a lentiviral-based control shRNA. (upper-first row) Tube formation on Cultrex-RGF-BME without FGF-2. (upper-second row) Tube formation on Cultrex-RGF-BME in the presence of 20 ng/ml FGF-2. (upper-third row) Tube formation on reduced-growth factor-Matrigel in the presence of 5 μM of the angiogenesis inhibitor sulphoraphane. (lower) Quantitation of tube formation was performed with the Angioquant software. Relative tube formation was calculated as the ratio of total capillary tube length in cells with or without FGF-2 normalized to total capillary tube length of EV cells without FGF-2 and set to 1 for total capillary tube length of EV cells without FGF-2. Data are expressed as mean±SD.
HUVECs were then transduced with a pBabe-based retrovirus construct of myc-Ezh2. Cells transduced with the empty pBabe vector (EV) were used as a negative control. […]
The in vitro tube formation assay was performed using the In Vitro Angiogenesis Assay Kit (Trevigen, catalog number 3470-096-K). […] After 6 h of incubation at 37° C., the medium was removed, the cells were fixed and stained with Calcein AM, and the total length of capillary tubes was measured in the total area of the wells using image analysis software (Angioquant). […]

[6] = MEFs cultured under standard conditions
[7] = MEFs transfected with control siRNA, FGF-2 for 1, 4, 12 or 18 hours
[8] = serum-starved MEFs, 24 hours after stimulation
[9] = serum-starved MEFs transfected with control RNA

Question: Which results are given for “1433-GUGGACUCACCUUACCGAAUU-1454 [Ndy1 siRNA]”?
Answer: expression of Ezh2 (Ndy1; [6]): down-regulates, slightly; expression of miR-101 (Ndy1; [6]): does not affect; p16Ink4a (Western blot) (Ndy1; passage 2 MEFs, transient knock down, 4 days): relatively slight upregulation; increase of expression of p16Ink4a (Ndy1; passage 3 MEFs, four days after transfection): about 2.3 times; expression of Ezh2 (Ndy1; passage 3 MEFs, four days after transfection (FIG. 17 panel B)): decreases; endogenous and exogenous Ndy1 (Western blotting) (Ndy1; passage 3 wild type MEFs and passage-8 MEFs overexpressing Ndy1): downregulation; senescence (MEFs [1]): promote senescence; Ezh2 [2]: downregulated; expression of miR-101 [2]: upregulating; serum-stimulated Ezh2 upregulation (MEFs [3]; MEFs transfected with siRNA for Ndy1, serum stimulation): not affected; FGF-2 driven proliferation (MEFs [4]; MEFs overexpressing myc.Ezh2): no effect; directional and random FGF-2 driven cell motility (MEFs [4]; MEFs overexpressing myc.Ezh2): remained unaffected; FGF-2-induced Ezh2 upregulation (MEFs [4]; MEFs, 48 hour time point under FGF-2): sufficient to block; FGF-2 effect on proliferation and migration (MEFs [4]; serum-starved MEFs stimulated with FGF-2): greatly limited

Question: “FGF-2: Fibroblast growth factor-2 (FGF-2) or basic fibroblast growth factor” was tested. Which “total length of the capillary tubes formed” value [5] did it give?
Answer: increase

Question: And the Ezh2 (MEFs [3]; [7])?
Answer: upregulates

Question: And the Ndy1 (MEFs [3]; [7])?
Answer: upregulates

Question: What about the miR-101 (MEFs [3]; [7]) of the same substance?
Answer: down-regulates

Question: And the “expression of Ndy1” value (MEFs [3]; [8])?
Answer: promoted

Question: What about the “level at which Ezh2 expression is induced” value (MEFs [3]; [8]) of the same substance?
Answer: primarily at the protein level

Question: And the miR-101 (MEFs [3]; [8])?
Answer: downregulating

Question: And the Ezh2 expression (MEFs [3]; serum-starved MEFs, 24 hours after stimulation, 20 ng/ml (serum 10%))?
Answer: significantly upregulated

Question: What about the “directional and random migration” value (MEFs [4]; [9]) of the same substance?
Answer: increase

Question: And the proliferation rate (MEFs [4]; [9])?
Answer: increase
